Changes are numbered by the printed parent chain.

One data set deals with T1, DBP (Homo sapiens, UniProt P02774).
T1 sequence (P02774 17-474): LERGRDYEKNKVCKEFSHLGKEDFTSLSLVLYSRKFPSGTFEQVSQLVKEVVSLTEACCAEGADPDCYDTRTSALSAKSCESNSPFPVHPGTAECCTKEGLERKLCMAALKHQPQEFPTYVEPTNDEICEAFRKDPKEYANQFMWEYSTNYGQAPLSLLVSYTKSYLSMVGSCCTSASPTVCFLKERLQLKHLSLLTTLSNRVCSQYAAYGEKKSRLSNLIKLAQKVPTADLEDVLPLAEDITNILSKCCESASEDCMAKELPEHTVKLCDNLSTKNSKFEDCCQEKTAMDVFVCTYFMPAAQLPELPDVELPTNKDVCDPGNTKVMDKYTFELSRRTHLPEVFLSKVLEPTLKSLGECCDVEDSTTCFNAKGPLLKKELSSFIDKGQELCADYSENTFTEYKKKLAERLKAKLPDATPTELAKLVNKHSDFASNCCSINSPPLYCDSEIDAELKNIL
The settings on record: Cooke and Haddad, 1989; cited from earlier work.

In data set [1] the test system is neutrophils. The experiment in a line: Neutrophil chemotaxis assay, C5a co-chemotactic activity of DBP. Format: cell-based, human. Also noted: effect on co-chemotactic activity of DBP, dose-response: dose or concentration left out as unconfirmed. The source says:
Isolation of human neutrophils Neutrophils, serum, and plasma were isolated from the venous blood of healthy, medication-free, paid volunteers who gave informed consent. The Institutional Review Board of Stony Brook University approved this procedure. These procedures have been described in detail previously (Kew et al., 1995a).
Neutrophil chemotaxis assay Cell movement was quantitated using a 48 well microchemotaxis chamber (Neuroprobe, Cabin John, Md.) and 5.0 μm pore size cellulose nitrate filters (purchased from Neuroprobe) as previously described (Kew et al., 1995a). Cell suspensions and chemotactic factors were prepared and/or diluted in the chemotaxis assay buffer (Hank's balanced salt solution supplemented with 10 mM HEPES (pH 7.4) and 1% bovine serum albumin). Cell movement was quantitated microscopically by measuring the distance in microns (μm) that the leading front of cells had migrated into the filter according to the method described by Zigmond and Hirsch (1973). In each experiment, five fields per duplicate filter were measured at 400× magnification.

Data set [2] concerns neutrophils. Nature of the data set: Neutrophil viability. Type of data set: cell-based, human. The settings on record: 10 μM SOV.
Data set [3] has as its system Alkaline phosphatase activity on the plasma membrane of viable neutrophils. Nature of the data set: Neutrophil alkaline phosphatase assay (DiFMUP). Type of data set: cell-based, human. The settings on record: 5×10^6 cells pretreated with 10 nM 1,25(OH)2D3 or 10 μM SOV; untreated 11,107±1335 units. As for the experimental part: Neutrophil alkaline phosphatase assay Alkaline phosphatase activity on the plasma membrane of viable neutrophils was measured using the fluorescent substrate 6,8-difluoro-4-methylumbelliferyl phosphate (DiFMUP) and the EnzChek Phosphatase Assay Kit (Molecular Probes, Eugene, Oreg.). Neutrophils (5×10^6 cells) were suspended in 50 μl of 0.1M sodium acetate (pH 5.0) and were immediately added to microtiter plates containing 50 μl of 0.2mM DiFMUP substrate and incubated for 5 min at 22° C. in the dark. A standard curve was generated using known amounts of the fluorescent compound 6,8-difluoro-7-hydroxy-4-methylcoumarin. Fluorescence was measured at 358 nm excitation and 455 nm emission using a SpectraMax M2 microtiter plate reader (Molecular Devices, Sunnydale, Calif.).

For the next data set, the target named is T2, G-actin (Oryctolagus cuniculus, UniProt P68135).
T2 construct: G-actin was purified from rabbit skeletal muscle; from tissue; host or cells: rabbit skeletal muscle
Nature of the data set: G-actin binding detected by non-denaturing PAGE. The settings on record: non-denaturing PAGE (data not shown). As for the experimental part: Functional characterization of reDBP. The capacity of reDBP to bind 25(OH)-vitamin D3 was measured to determine if the expressed proteins could functionally bind a physiological ligand. […] The ability of reDBPs to enhance C5a-mediated chemotaxis and Ca^2+ flux in differentiated HL-60 cells was determined next.

Data set [4] concerns differentiated HL-60 cells. Nature of the data set: Chemotaxis assay, differentiated HL-60 cells responding to C5a, C5a plus DBP or ZAS. Type of data set: cell-based, Human. The settings on record: differentiated HL-60 cells; 100 pM C5a (FIG. 1: 25-200 pM) plus 50 nM of indicated DBP, 60 min at 37° C. As for the experimental part:
Cells (6×10^6/ml) were resuspended in chemotaxis buffer and treated either with chemotaxis buffer (control), 1 μM of peptide 1 (130-152), or 1 μM of peptide 2 (150-172) for 30 min at room temperature. The chemotactic response of differentiated HL-60 cells to 100 pM C5a alone, C5a plus 50 nM full-length natural DBP or 1% zymosan-activated serum (ZAS) was measured for 60 minutes at 37° C. Numbers represent net cell movement in 60 min, mean±SEM of 3 experiments.
(§1) Cells and cell culture: Human promyelocytic cell line HL-60 was obtained from ATCC (Rockville, Md.) and cultured in RPMI 1640 medium supplemented with 10% FBS. Differentiation of HL-60 cells was initiated with 250 μM Bt2cAMP for 48 hours.
Chemotaxis assay. Chemotaxis was performed as described previously (see Kew, R. R. et al., J. Leukoc. Biol. 58, 55-58 (1995)). In brief, 35 μl of C5a (0.01 to 1 nM) in the chemotaxis buffer (HBSS with 1% BSA, 10 mM HEPES) were placed in duplicate in the lower chamber of a 48-well chamber (Neuroprobe, Md.). The lower compartments were covered with a 5 μm pore cellulose nitrate filter and then 50 μl of the cell suspension (2.5×10^5/well) was pipetted into the upper compartments. The chemotactic chamber was incubated for 1 hour at 37° C. in a humidified incubator with 5% CO2. Following incubation, the filter was fixed, stained and mounted on a microscope slide. Cell movement was measured as the distance in microns that the leading front of the cells had migrated into the filter (see Zigmond, S. et al., J. Exp. Med. 137, 387 (1973)).

Data set [5] relates to differentiated HL-60 cells. The experiment in a line: Ligand-induced calcium mobilization (Fluo-3 AM) in differentiated HL-60 cells. Format: cell-based, Human. The settings on record: differentiated HL-60 cells incubated 30 min with 50 nM of indicated DBP, then C5a. As for the experimental part:
as §1
Ligand-induced calcium mobilization. Calcium mobilization studies were performed using the Fluo-3 AM probe as described previously (see Merritt, J. E. et al., Biochem. J. 269, 513-519 (1990)). Differentiated HL-60 cells (1×10^7 cells/ml) were resuspended in HBSS-1% BSA containing 2 μM Fluo-3 AM (Molecular Probes, Eugene, Oreg.) and incubated at 37° C. for 40 minutes. Cells incubated without the dye were used as a control to measure autofluorescence (Fmin). Following the dye uptake, cells were washed twice then suspended at 5×10^6 cells/ml in HBSS containing 1% BSA. Half of the cell suspension was treated with 50 nM DBP for 30 min at room temperature, the other half served as the untreated control. For each measurement, 400 μl of cell suspension (with or without DBP) was added to a cuvette and stimulated with various concentrations of purified C5a at room temperature (22-24° C.). Fluorescence was then measured immediately using a Perkin-Elmer LS-5 fluorometer at 505 nm excitation, 526 nm emission for Fluo-3 AM. Fmax was measured by treating labeled cells with 60 μM digitonin. Intracellular free calcium concentrations were calculated using the following formula: (Ca^2+)=Kd (F−Fmin)/(Fmax−F), where Kd=325 nM for Fluo-3 according to manufacturer (Molecular Probes).

Regarding `C=C1CC[C@H](O)C/C1=C/C=C1\CCC[C@]2(C)[C@@H]([C@H](C)CCCC(C)(C)O)CC[C@@H]12` [25(OH)D3], the “affinity for DBP relative to 1,25(OH)2D3” value on DBP is 10 fold. Further, the “effect on co-chemotactic activity of DBP, dose-response” value in the data set with neutrophils [1] (bound to DBP) is “no effect on co-chemotactic activity”. For the same molecule, in the data set on neutrophils [1] (ligand bound to DBP, 1,25(OH)2D3 100 nM), the “effect on co-chemotactic activity of DBP (neutrophil chemotaxis toward C5a)” value is recorded as “did not alter its ability to enhance neutrophil chemotaxis toward C5a”.

Regarding `[Na+].[Na+].[Na+].[O]=[V]([O-])([O-])[O-]` [SOV, sodium orthovanadate], the cell viability result in the data set on neutrophils [2] is “did not alter cell viability”. Further, the “cells ability to migrate towards C5a plus DBP” value in the data set on neutrophils [1] (SOV alone) is “no effect”. Besides, the “reversal of the inhibitory effect of 1,25(OH)2D3 on the C5a co-chemotactic activity of DBP” value with neutrophils [1] (neutrophils pretreated with 10 μM SOV) is listed as “completely reverses the inhibitory effect”. Also, the “neutrophil AP activity” value in data set [3] was found to be 667±111 units.

B1: full-length reDBP: E. coli expressed full-length human DBP (Gc-2 allele), residues 1-458 (protein)
chain: T1 sequence (P02774 17-474) with T420K, H429R
As to B1, the G-actin binding result with G-actin is given as “bound G-actin in a 1:1 molar complex”. In data set [4], the “enhancement of C5a-mediated chemotaxis (net cell movement)” value is listed as “significantly enhanced”. For the same molecule, in data set [5], the “enhancement of intracellular Ca2+ flux in response to C5a” value is recorded as “significantly enhanced”.

These data come from patent US7547676B2, “Antagonist peptides to the C5A chemotactic function of vitamin D binding protein” (The Research Foundation of State University of New York, priority 2004, dated 2009).
